Laboratory results from patent publication US6500849B1, “1-alkyl-, 1-alkenyl-, and 1-alkynylaryl-2-amino 1,3-propanediols and related compounds” (Aventis Pharmaceuticals Inc., priority 1990, dated 2002).

Key:
[1] = test system: female Swiss Webster mice; test: TPA-induced ear edema assay; assay type: in vivo; conditions: 10 μg/ear topical, after about 5 hours
Method: In the TPA-induced ear edema assay, TPA (12-O-tetradecanoylphorbol-13-acetate) was dissolved in 30/70 propylene glycol/ethanol and was applied to the right ear of groups of 6 female Swiss Webster mice, which were housed together in a cage under standard conditions for 1 week prior to use with food and water ad lib, at a volume of 20 μl so that a total of 10 μg of TPA is delivered to the inner and outer surfaces of the ear. The test compound was dissolved in the vehicle and was applied to the right ear (the inner and outer surface) at a volume of 20 μl so that a total of 10 μg of the compound was delivered to the ear. After about 5 hours, the animals were sacrificed, a 4 mm diameter plug was taken from each ear and weighed. The difference between the right and left ear plug weights for each animal was determined. The antiinflammatory activity of the test compound is expressed as the mean percent change in the ear plug weight of the treated animals compared to the mean percent change in the plug weight of the control animals.

[2] = test system: female Swiss Webster mice; test: Arachidonic acid-induced ear edema assay; assay type: in vivo; conditions: 1 mg/ear topical, arachidonic acid 4 mg/ear
Method: In the arachidonic acid-induced ear edema assay, the test compound was dissolved in 30/70 propylene glycol/ethanol and was applied to both ears of groups of 6 female Swiss Webster mice, which were housed together in a cage under standard conditions for 1 week prior to use with food and water ad lib, at a volume of 20 μl so that a total of 1.0 mg of test compound was delivered to each ear over the inner and outer surfaces. The same volume (20 μl) of vehicle was applied to each ear of a control group of mice. After 30 minutes, arachidonic acid was applied to the right ear of each mouse of each group in the amount of 4 mg/ear. Vehicle was applied to the left ear of each mouse of each group at a volume of 20 μl/ear. After an additional hour, the mice were sacrificed and a 4 mm plug was taken from each ear and weighed. The difference between the right and left ear plugs was determined for each animal. The antiinflammatory activity of the test compound is expressed as the mean percent change in the ear plug weight of the treated animals relative to the mean percent change in weights of control animals' ear. Antiinflammatory activity of representative compounds of the present invention as determined in this assay are presented below in Table 3.

Protein kinase C = Protein kinase C assay (32P incorporation into Type III histone); assay type: biochemical, rat; conditions: rat brain protein kinase C; phosphatidylserine/diacylglycerol stimulated; read-out: Protein Kinase Inhibitory Activity IC50
Method: (see U. Kikkawa, et al., Biochemical and Biophysical Research Communications, 135, 636 (1986) and R. M. Bell, et al. “Methods in Enzymology, Hormone Action,” Part J, P.M. Conn, Ed., Academic Press, Inc., New York, N.Y. 1986, page 353). Protein kinase C enzyme extract was prepared from the brain of male Wistar rats weighing 180 to 200 g and purified by the method of U. Kikkawa, et al., ibid. 636. The purified extract was stored at −80° C., and aliquots were used in the protein kinase C assay performed by a modification of the method of R. M. Bell, et al., ibid. al 354. To perform the assay, duplicate aliquots of duplicate samples are employed. Basal or unstimulated protein kinase C, phosphatidylserine/diacylglycerol stimulated protein kinase C, and test samples are run in each assay. […] The assay tubes were allowed to warm to 25° C. and an 8 μl mixture of adenosine 5′-triphosphate (100 μM) and ^32P-adenosine triphosphate (1 to 2×10^5 counts per minute) was added to each tube for a final volume of 80 μl per tube. After 2 min, the reaction (the incorporation of phosphorous into Type III histone) was terminated by spotting the assay mixture on phosphocellulose paper. The spots are cut out of the paper and the radioactivity (counts per min) of each spot was determined in a scintillation counter.

Fusobact. varium = test: Anerobic antibacterial assay (agar dilution, Wilkins-Chalgren agar); assay type: cell-based; conditions: anaerobic, 48 hours at 37° C.
Propionibact. acnes = test: as above; assay type: cell-based; conditions: anaerobic, 48 hours at 37° C.
Strept. pyogenes = test: Aerobic antibacterial assay (agar dilution, Mueller-Hinton agar); conditions: Strept. pyogenes 77 A; aerobic; 24 hours at 37° C.
Klebsiella spp. = test: as above; conditions: Klebsiella spp. 1522E; aerobic; 24 hours at 37° C.
E. cloacae = test: as above; conditions: E. cloacae 1321E; aerobic; 24 hours at 37° C.
Bact. fragilis = test: Anerobic antibacterial assay (agar dilution, Wilkins-Chalgren agar); assay type: cell-based; conditions: anaerobic, 48 hours at 37° C.
Bact. ovatus = test: as above; assay type: cell-based; conditions: Bact. ovatus 103; anaerobic; 48 hours at 37° C.
Bact. vulgatus = test: as above; assay type: cell-based; conditions: Bact. vulgatus 1446; anaerobic; 48 hours at 37° C.
Bact. thetaiotaom. = test: as above; assay type: cell-based; conditions: anaerobic, 48 hours at 37° C.
Bact. distasonis = test: as above; assay type: cell-based; conditions: Bact. distasonis 1366; anaerobic; 48 hours at 37° C.
Spaeroph. freundii = test: as above; assay type: cell-based; conditions: Spaeroph. freundii 1369; anaerobic; 48 hours at 37° C.
Peptostr. anaerobius = test: as above; assay type: cell-based; conditions: Peptostr. anaerobius 932; anaerobic; 48 hours at 37° C.
Clost. tetani = test: as above; assay type: cell-based; conditions: Clost. tetani 19406; anaerobic; 48 hours at 37° C.
Clost. perfringens = test: microbe, parasite or virus in culture; assay type: cell-based; conditions: Clost. perfringens 194; anaerobic; 48 hours at 37° C.
Aspergillus Niger = test: Antifungal assay (microtitration technique); assay type: cell-based; conditions: Aspergillus Niger strain 500/284; 5 days at 30° C.
Method: (§1) The microtiter plate is prepared as follows: The wells are each filled (2 rows/strain) with 50 μl neopeptone-dextrose broth (12-channel pipette). In addition, one row/strain is coated with 50 μl yeast-nitrogen base/well for yeasts and moulds. […] All wells are then inoculated with 150 μl standardized organism suspension (yeasts: 1×10^3 organisms/ml suspension; cutaneous fungi and moulds: 1.6×10^5 organisms/ml suspension); the total volume is 200 μl per well. There is also a growth control (inoculated, not medicated), a solvent control (inoculated, not medicated, containing solvent as in medicated rows) and a negative control (not inoculated, not medicated). Incubation for 5 days at 30° C. is followed by photometric evaluation. The obtained measurements are checked visually (macroscopically and microscopically) and corrected where necessary. Criteria for Evaluation of the Antimycotic Effect a. Photometric measurements (matrix method) b. Growth, macroscopic evaluation c. Growth, microscopic evaluation (inversion light microscope, magn. 64×).

Candida Albicans = test: Antifungal assay (microtitration technique); assay type: cell-based; conditions: Candida Albicans strain 200/175; 5 days at 30° C.
Method: as §1

Microsporum Canis = test: Antifungal assay (microtitration technique); assay type: cell-based; conditions: Microsporum Canis strain 150/353; 5 days at 30° C.
Method: as §1

[3] = test system: Trichophyton Mentagrophytes; test: Antifungal assay (microtitration technique); assay type: cell-based; conditions: Trichophyton Mentagrophytes strain 100/25; 5 days at 30° C.
Method: as §1

Trichophyton Rubrum = test: Antifungal assay (microtitration technique); assay type: cell-based; conditions: Trichophyton Rubrum strain 101/85; 5 days at 30° C.
Method: as §1

Trichophyton Vaginalis = test: Antifungal assay (microtitration technique); assay type: cell-based; conditions: Trichophyton Vaginalis strain 111/216; 5 days at 30° C.
Method: as §1

CCCCCCCCCCc1cccc(C(O)C(N)CO)n1 (stereo not drawn) [erythro-2-amino-1-(6-decyl-2-pyridinyl)-1,3-dihydroxypropane]
Antiinflammatory Activity Percent Decrease in Ear Plug Weight at 10 μg/ear [1]: 66%
Antiinflammatory Activity Percent Decrease in Ear Plug Weight at 1 mg/ear [2]: 32%
IC50 (Protein kinase C): 48 µM
Antibacterial activity (MIC, mg/l) (Fusobact. varium; Fusobact. varium 3085): 12.50 mg/L
Antibacterial activity (MIC, mg/l) (Propionibact. acnes; Propionibact. acnes 6922): 12.50 mg/L
Antibacterial activity (MIC, mg/l) (Strept. pyogenes): 6.25 mg/L
Antibacterial activity (MIC, mg/l) (Klebsiella spp.): 12.50 mg/L
Antibacterial activity (MIC, mg/l) (E. cloacae): 12.50 mg/L

CCCCCCCCCCC#Cc1cccc([C@@H](O)[C@H](CO)NC(C)=O)n1 [erythro-N-{1-[6-(1-Dodecynyl)-2-pyridinyl]-1,3-dihydroxy-2-propanyl}acetamide]
Antiinflammatory Activity Percent Decrease in Ear Plug Weight at 10 μg/ear [1]: 59%
Antibacterial activity (MIC, mg/l) (Bact. fragilis; Bact. fragilis 312): 3.13 mg/L
Antibacterial activity (MIC, mg/l) (Bact. fragilis; Bact. fragilis 960): 3.13 mg/L
Antibacterial activity (MIC, mg/l) (Bact. fragilis; Bact. fragilis 1313): 6.25 mg/L
Antibacterial activity (MIC, mg/l) (Bact. fragilis; Bact. fragilis 17390): 6.25 mg/L
Antibacterial activity (MIC, mg/l) (Bact. fragilis; Bact. fragilis 18125): 3.13 mg/L
Antibacterial activity (MIC, mg/l) (Bact. fragilis; Bact. fragilis 19016): 6.25 mg/L
Antibacterial activity (MIC, mg/l) (Bact. ovatus): 3.13 mg/L
Antibacterial activity (MIC, mg/l) (Bact. vulgatus): 3.13 mg/L
Antibacterial activity (MIC, mg/l) (Bact. thetaiotaom.; Bact. thetaiotaom. 123): 3.13 mg/L
Antibacterial activity (MIC, mg/l) (Bact. thetaiotaom.; Bact. thetaiotaom. 1428): 6.25 mg/L
Antibacterial activity (MIC, mg/l) (Bact. thetaiotaom.; Bact. thetaiotaom. 1445): 6.25 mg/L
Antibacterial activity (MIC, mg/l) (Bact. distasonis): 6.25 mg/L
Antibacterial activity (MIC, mg/l) (Fusobact. varium; Fusobact. varium 3085): 6.25 mg/L
Antibacterial activity (MIC, mg/l) (Fusobact. varium; Fusobact. varium 5262): 6.25 mg/L
Antibacterial activity (MIC, mg/l) (Spaeroph. freundii): 3.13 mg/L
Antibacterial activity (MIC, mg/l) (Peptostr. anaerobius): 6.25 mg/L
Antibacterial activity (MIC, mg/l) (Propionibact. acnes; Propionibact. acnes 6919): 6.25 mg/L
Antibacterial activity (MIC, mg/l) (Propionibact. acnes; Propionibact. acnes 6922): 6.25 mg/L
Antibacterial activity (MIC, mg/l) (Clost. tetani): 12.50 mg/L
Antibacterial activity (MIC, mg/l) (Clost. perfringens): 12.00 mg/L
Antifungal Activity MIC (Aspergillus Niger): 125.000 µg/mL
Antifungal Activity MIC (Candida Albicans): 125.000 µg/mL
Antifungal Activity MIC (Microsporum Canis): 0.970 µg/mL
Antifungal Activity MIC [3]: 7.810 µg/mL
Antifungal Activity MIC (Trichophyton Rubrum): 31.250 µg/mL
Antifungal Activity MIC (Trichophyton Vaginalis): 15.625 µg/mL
